This is an account of results in US20260028334A1, “N-(3-(BENZO[B]THIOPHENE-2-CARBOXAMIDO)-PHENYL)-2,3-DIHYDROBENZO[B][1,4]DIOXINE-6-CARBOXAMIDE DERIVATIVES AND RELATED COMPOUNDS AS LACTATE/ATP PRODUCTION INHIBITORS FOR THE TREATMENT OF CANCER” (WMT Aktiengesellschaft, priority 2022, published 2026).

In one data set the test system is lactate production. In words: Lactate production inhibition assay. It counts as cell-based. The settings on record: summary of Table 1. The source says:
(§1) Recombinant Lactate Dehydrogenase A (LDHA) was used to convert lactate in tissue culture supernatants to pyruvate, with the concomitant reduction of NAD^+ to NADH. The electron acceptor 1-methoxyphenazine methosulfate (MPMS) was then reduced by the generated NADH, thereby regenerating NAD+. Reduced 1-methoxyphenazine methosulfate is used in turn to reduce Water Soluble Tetrazolium 8 (WST8) to an orange WST8 formazan product. The assay is adapted from the publication “Application of WST-8 based colorimetric NAD(P)H detection for quantitative dehydrogenase assays” described in Chamchoy et al., BMC Biochemistry (2019) 20(1):4.
(§2) Cells were plated at 4,000 per well in 96-well plate in a medium of high glucose DMEM (PAN) supplemented with 10% FBS (PAN), 2 mM glutamine-alanine (PAN), 2 mM pyruvate (Sigma) and 10 mL/L penicillin-streptomycin (PAN) and grown at 37° C. in 0.5% O2, 5% CO2 and 75% humidity. For hypoxia, cells were grown and treated in the Whitley H35 Hypoxystation (Don Whitley Scientific) at 37° C. in 0.5% O2, 5% CO2 and 75% humidity. The next day, cells were induced with test compounds (FIG. 2: compounds of examples 3/16, 3/8, 10 at 10000, 3333, 1111, 370, 123, 41, 14, 5 and 1.5 nM; FIG. 7: compounds of examples 3/16, 3/8, 10 at 41, 14, 4.6 nM and Phenformin at 100, 50, 25, 12.5, 6.25 μM; FIGS. 8C and 8D: compounds of example 3/16, 3/8, 10, 3/19, 30 and 30/2 at 10000, 3333, 1111, 370, 123, 41, 14, 5 and 1.5 nM), as well as with vehicle (DMSO) only, for 48 hours. After this time, the medium was removed from the cells to measure extracellular lactate. To detect extracellular lactate, cell supernatants are diluted 1:5 in assay buffer (0.2 M tris, pH 8.2) by adding 10 μl cell supernatant+40 μl buffer in a 96-well plate. Assay substrate mix is prepared by adding NAD+ (3.75 mM), WST-8 (0.9 mM), MPMS (10 mM) and recombinant LDHA, expressed in E. coli as an N-terminal hexahistidine tagged fusion protein, is added to a final concentration of 0.8 μg/ml in assay buffer. Thereafter, 80 μl of substrate mix is added to 20 μl of diluted cell supernatant in a 96-well flat-bottomed plate and the absorbance at 460 nm determined at one minute intervals over a 30 minute period. A standard curve of known lactate concentrations of 10, 8, 6, 4, 1, 0.5 and 0.25 mM was constructed for each assay plate.

Data set [1] has as its system Panc02 and SKOV3 cells. Nature of the data set: Assay for inhibition of ATP production (FIGS. 8A and 8B). It counts as cell-based. As to conditions: 48 hours treatment, 1.5 to 10000 nM. Here is the method:
The assay determines the amount of ATP in cells in culture.
Cells were plated at 4,000 per well in 96-well plate in a medium of high glucose DMEM (PAN) supplemented with 10% FBS (PAN), 2 mM glutamine-alanine (PAN), 2 mM pyruvate (Sigma) and 10 mL/L penicillin-streptomycin and grown at 37° C. in 0.5% O2, 5% CO2 and 75% humidity. For hypoxia, cells were grown and treated in the Whitley H35 Hypoxystation (Don Whitley Scientific) at 37° C. in 0.5% O2, 5% CO2 and 75% humidity. The next day, cells were induced with test compounds (FIG. 1: compounds of examples 3/16, 3/8, 10 at 10000, 3333, 1111, 370, 123, 41, 14, 5 and 1.5 nM; FIGS. 8A and 8B: compounds of example 3/19, 30 and 30/2 at 10000, 3333, 1111, 370, 123, 41, 14, 5 and 1.5 nM), as well as with vehicle (DMSO) only, for 48 hours. After this time, the medium was removed from the cells and intracellular ATP levels were determined using the Promega CellTiter-Glo 2.0 assay protocol (Promega, G9241). To estimate the effect of compounds on the ATP production, sample values were compared to the values of DMSO only. IC50 values were generated by plotting the luciferase counts against compound concentration.

Data set [2] relates to Panc02 and SKOV3 cells. In words: Lactate production inhibition assay (FIGS. 8C and 8D). In kind it is cell-based. The settings on record: 48 hours treatment, 1.5 to 10000 nM.
Description: as §1, §2

Data set [3] relates to ER stress markers CHAC and CHOP/DDIT3. In words: Gene expression analysis by qPCR (FIG. 8E-8AB). It counts as cell-based. The settings on record: Panc02 and SKOV3 cells, 10 nM, 0.5, 1, 2 and 4 hours. On the procedure:
Cells were plated at 40,000 cells per ml in medium of high glucose DMEM (PAN) supplemented with 10% FBS (PAN), 2 mM glutamine-alanine (PAN), 2 mM pyruvate (Sigma) and 10 mL/L penicillin-streptomycin (PAN), and grown at 37° C. in 0.5% O2, 5% CO2 and 75% humidity. Next day, cells were induced with test compounds (FIG. 3: compounds of example 3/16, 3/8, 10 at 10 nM; FIG. 8E-8AB: compounds of example 3/16, 3/8, 10, 3/19, 30 and 30/2 at 10 nM) 0.5, 1, 2 and 4 hours, as well as with vehicle (DMSO) only. After this time, the cells were lysed according to protocol (Promega, SV 96 Total RNA Isolation System, #Z3505). After transferring the lysate to a 96-well-RNA binding plate, RNA was isolated and put at approx. 1 μg into cDNA synthesis using LunaScript RT SuperMix Kit (NEB, #E3010). The resulting cDNA was diluted 1:5 and used for qPCR Analysis (Taqman). Luna Universal Probe qPCR Master Mix (NEB, #M3004) is used as 2× reaction mix to which the diluted cDNA is added. The qPCR analysis was performed using QuantStudio™ 6 Flex real-time PCR systems (Thermo Fisher Scientific).
A set of primers plus probe for each gene of interest was purchased at IDT (Integrated DNA Technologies).

The conditions of data set [4]: patients treated with the drug; cited from earlier work.

In the case of `O=C(Nc1ccc(F)c(NC(=O)c2cc3ccc(OC[C@H](O)CN4CCCC4)cc3s2)c1)c1ccc2c(c1)OCCO2` (single isomer, unassigned) [Example 30/2, N-(4-Fluoro-3-(6-(2-hydroxy-3-(pyrrolidin-1-yl)propoxy)benzo[b]thiophene-2-carboxamido)phenyl)-2,3-dihydrobenzo[b][1,4]dioxine-6-carboxamide], the “activity in inhibiting production of ATP and/or lactate” value (from here on “activity in inhibiting production”) in the data set with lactate production was “high activity”. The ATP production level entry with Panc02 and SKOV3 cells [1] is reported as “dose-dependent reduction”. Besides, the lactate levels result in the data set on Panc02 and SKOV3 cells [2] is on record as “dose-dependent downregulation”. In addition, in data set [3], the “ER stress markers CHAC and CHOP/DDIT3” value is on record as “time-dependent upregulation”.

As for `CN(C)C(=N)N=C(N)N` [Metformin, metformin], in data set [4], the “incidence of lactic acidosis” value was 3 cases in 100,000 patients.

Consider `O=C(Nc1ccc(F)c(NC(=O)c2cc3ccc(OCC(O)CN4CCCC4)cc3s2)c1)c1ccc2c(c1)OCCO2` (racemic) [Example 30, N-(4-Fluoro-3-(6-(2-hydroxy-3-(pyrrolidin-1-yl)propoxy)benzo[b]thiophene-2-carboxamido)phenyl)-2,3-dihydrobenzo[b][1,4]dioxine-6-carboxamide], for which the “activity in inhibiting production” value in the data set with lactate production is on record as “high activity”. In the data set with Panc02 and SKOV3 cells [1], the ATP production level result is “dose-dependent reduction”. Also, in the data set with Panc02 and SKOV3 cells [2], the lactate levels entry was “dose-dependent downregulation”. Moreover, the “ER stress markers CHAC and CHOP/DDIT3” value in data set [3] is listed as “time-dependent upregulation”.

With `CCN1CCN(Cc2ccc3cc(C(=O)Nc4cc(NC(=O)c5ccc6c(c5)OCCO6)ccc4F)sc3n2)CC1` [3/19], the “activity in inhibiting production” value in the data set on lactate production is recorded as “high activity”. Also, the ATP production level entry with Panc02 and SKOV3 cells [1] was “dose-dependent reduction”. Also, in the data set with Panc02 and SKOV3 cells [2], the lactate levels result is “dose-dependent downregulation”. Moreover, the “ER stress markers CHAC and CHOP/DDIT3” value in data set [3] is on record as “time-dependent upregulation”.

On to `[H]/N=C(/N)N/C(=N/[H])NCCc1ccccc1` [Phenformin, phenformin], for which the “incidence of lactic acidosis” value in data set [4] is reported as 64 cases in 100,000 patients.
